# Measurements published in patent US10730826B2, “Ketone inhibitors of lysine gingipain” (CORTEXYME, INC., priority 2016, dated 2020).
# Values joined by “and” are separate entries in the source; they are usually repeats but may differ in a detail not shown here. Equal entries are not always repeated. Where two headings read alike, the source gives them in different places.
# Experiments:
# [1] = target: Cathepsin B (Homo sapiens (Human), UniProt P07858); assay: Cathepsin B inhibition assay; assay type: biochemical; conditions: read-out: IC50 (nM) CatB
# Description: (§1) The capacities of compounds of the present invention to inhibit the activity of cathepsins B, H, K, L, and S were measured in similar assays. Boc-Leu-Arg-Arg-AMC (20 μM) in sodium acetate buffer (50 mM, pH 5.5) containing DTT (1 mM) and EDTA (2 mM) was used for the Cathepsin B assay. L-Arg-AMC (20 μM) in sodium acetate buffer (50 mM, pH 5.5) containing DTT (1 mM) and EDTA (2 mM) was used for the Cathepsin H assay. Z-Phe-Arg-AMC (10 μM) in HEPES buffer (50 mM, pH 7.4) containing DTT (2.5 mM) and EDTA (1 mM) was used for the Cathepsin K assay. Z-Phe-Arg-AMC (20 μM) in sodium acetate buffer (50 mM, pH 5.5) containing DTT (1 mM) and EDTA (2 mM) was used for the Cathepsin L assay. Z-Leu-Arg-AMC (10 μM) in sodium acetate buffer (25 mM, pH 4.5) containing DTT (2.5 mM) and NaCl (50 mM) was used for the Cathepsin S assay. The capacities of the compounds to inhibit the activity of cathepsins F, V, and Z were also measured.
# (§2) Further assays to measure the inhibitory activity of compounds of the present invention against Kgp and cathepsins B, H, K, L, and S were conducted as described in Example 66. The capacities of the compounds to inhibit the activity of cathepsins F, V, and Z were also measured.
# [2] = target: Cathepsin S (Homo sapiens (Human), UniProt P25774); assay: Cathepsin S inhibition assay; assay type: biochemical; conditions: read-out: IC50 (nM) CatS
# Description: as §1, §2
# [3] = target: Cathepsin K (Homo sapiens (Human), UniProt P43235); assay: Cathepsin K inhibition assay; assay type: biochemical; conditions: read-out: IC50 (nM) CatK
# Description: as §1, §2
# [4] = target: Cathepsin L (Homo sapiens (Human), UniProt P07711); assay: Cathepsin L inhibition assay; assay type: biochemical; conditions: read-out: IC50 (nM) CatL
# Description: as §1, §2
# [5] = target: Cathepsin H (Homo sapiens (Human), UniProt P09668); assay: Cathepsin H inhibition assay; assay type: biochemical; conditions: read-out: IC50 (nM) CatH
# Description: as §1, §2
# [6] = target: cathepsin F (Homo sapiens (Human), UniProt Q9UBX1); assay: Cathepsin F inhibition assay; assay type: biochemical; conditions: Table 4; read-out: IC50 (nM) CatF
# Description: as §1, §2
# [7] = target: cathepsin V (Homo sapiens (Human), UniProt O60911); assay: Cathepsin V inhibition assay; assay type: biochemical; conditions: Table 4; read-out: IC50 (nM) CatV
# Description: as §1, §2
# [8] = target: cathepsin Z (Homo sapiens (Human), UniProt Q9UBR2); assay: Cathepsin Z inhibition assay; assay type: biochemical; conditions: Table 4; read-out: IC50 (nM) CatZ
# Description: as §1, §2
# [9] = target: lysine gingipain (Kgp) (Porphyromonas gingivalis (Bacteroides gingivalis), UniProt P72194); assay: biochemical; assay type: biochemical; conditions: IC50 (nM) Kgp
# Description: (§3) The specific assay conditions were as follows. Buffer: pH=7.5, 100 mM Tris-HCl, 75 mM NaCl, 2.5 mM CaCl2), 10 mM cysteine, 1% DMSO after all additions. Protein: 0.1 nM Kgp, isolated from culture of Porphyromonas gingivalis, as described by Pike et al. (J. Biol. Chem. 1994, 269(1), 406), and Potempa and Nguyen (Current Protocols in Protein Science. 2007, 21.20.1-21.20.27). Fluorogenic substrate: 10 μM Z-His-Glu-Lys-MCA. Time=90 minutes. Temperature=37° C.
# as §2
# [10] = tested on: lysine gingipain (Kgp); assay: biochemical; assay type: biochemical, Porphyromonas gingivalis; conditions: as compared to reference compound 73
# Description: as §3, §2
# [11] = Pharmacokinetics in male CD-1 mice dosed p.o.; assay type: in vivo; conditions: p.o. 10 mg/kg, compared to reference compound 73
# [12] = target: T1, Kgp (Porphyromonas gingivalis (Bacteroides gingivalis), UniProt Q51817); assay: Activity probe labelling of Kgp in P. gingivalis-infected Jurkat cells (SDS-PAGE); assay type: cell-based; conditions: infected Jurkat cells, preincubation before probe 15a
# Description: The identity of this labeled protein in P. gingivalis-infected cells was confirmed to be Kgp by Western blot.
# [13] = target: T1, Kgp; assay: Cy5 activity-based probe detection of Kgp in P. gingivalis lysate; assay type: binding
# Description: It has a warhead that binds to the Kgp active site, a peptide-based core, and a Cy5 fluorophore for detection. Labeled target proteins can be visualized by biochemical separation of a sample with fractionation by 2-D gel electrophoresis and detection of fluorescent signals from Cy5 at the appropriate excitation and emission wavelength. Incubation of a fixed concentration of the probe following binding of Kgp to a test compound (e.g., a candidate Kgp inhibitor) results in binding of the activity probe to Kgp active sites not already bound by the test compound.
# 10^8 bacteria were collected and centrifuged at 5000 g for 10 min at 4° C., and the supernatant was discarded. The bacterial cell pellet was lysed with 1 mL of B-Per lysis buffer (Thermo Fischer) on ice for 10 min, then centrifuged for 10 min at 14000 g, 4° C. Supernatant-containing protein lysate was collected. Biological samples were lysed with B-Per lysis buffer for 10 min at 4° C.
# Biological samples, P. gingivalis lysate or purified Kgp were incubated with quenchable Cy5 probe compound 71 (1 μM) for 1 h at 37° C. with shaking. Then, samples were denatured with NUPAGE LDS sample buffer (Thermo Fisher) containing 50 mM DTT at 95° C. for 10 min and subjected to SDS-PAGE electrophoresis using a Criterion 4-15% precast gel (Bio-Rad) and Tris/Glycine/SDS running buffer (Bio-Rad). The gel was run at 75V for 10 min and then 125V for 1.5 h. The gel was then removed from the plastic cassette and subjected to Cy5 visualization with a ChemiDoc imaging system (Bio-Rad).
# Samples were labeled with quenchable Cy5 probe compound 71 (1 μM) for 1 h at 37° C. with shaking. For immunoprecipitation of Cy5 labeled Kgp, the samples were then incubated with 10 μg of rabbit polyclonal CAB102 antibody with rotation overnight at 4° C. Then, samples were incubated with prewashed Dynabead Protein G beads with rotation for 20 min at room temperature. The samples were washed 4 times with 200 μL of washing buffer, using a magnetic rack. […]
# [14] = in vivo, po; cited from earlier work
Compound,IC50 ([1]; Table 4) [nM],IC50 ([2]; Table 4) [nM],IC50 ([3]; Table 4) [nM],IC50 ([4]; Table 4) [nM],IC50 ([5]; Table 4) [nM],IC50 [6] [nM],IC50 [7] [nM],IC50 ([9]; Table 4) [nM],further results
"NCCCC[C@H](NC(=O)C1CCCC1)C(=O)COc1c(F)c(F)cc(F)c1F (stereo in doubt) [Compound 73, N-[7-amino-2-oxo-1-(2,3,5,6-tetrafluorophenoxy)heptan-3-yl]cyclopentanecarboxamide, reference compound]",485,> 10000,20,700,110,500,5720,–,IC50 ([1]; Table 3): 485 nM; IC50 ([2]; Table 3): 9980 nM; IC50 ([3]; Table 3): 20 nM; IC50 ([4]; Table 3): 700 nM; IC50 ([5]; Table 3): 110 nM; IC50 [8]: > 10000 nM
NCCCCC(NC(=O)C1CCCC1)C(=O)COc1c(F)cccc1F (stereo not drawn) [Compound 2a],> 10000,> 10000,2290,> 10000,1550,–,> 10000,< 0.05,IC50 ([9]; Table 3): ≤ 0.05 nM and 0.11 nM; IC50 ([1]; Table 3): > 10000 nM; IC50 ([2]; Table 3): > 100000 nM; IC50 ([3]; Table 3): 2290 nM; IC50 ([4]; Table 3): > 100000 nM; IC50 ([5]; Table 3): 1550 nM
NCCCCC(NC(=O)C1CCCC1)C(=O)COC(C(F)(F)F)C(F)(F)F (stereo not drawn) [Compound 18a],> 10000,> 10000,> 10000,> 10000,> 10000,> 10000,> 10000,0.5,IC50 ([9]; Table 3): 0.5 nM
"COC(C)(C)C(=O)N[C@@H](CCCCN)C(=O)COc1c(F)ccc(F)c1F [Compound 47, (S)—N-(7-amino-2-oxo-1-(2,3,6-trifluorophenoxy)heptan-3-yl)-2-methoxy-2-methylpropanamide]",–,–,–,–,–,–,–,–,selectivity for Kgp over endogenous cathepsins [10]: far more selective; concentrations in the brain and cerebrospinal fluid (CSF) [11]: increased concentrations in the brain and cerebrospinal fluid (CSF); oral availability [11]: improved oral availability; plasma concentrations [11]: increased plasma concentrations
COC(C)(C)C(=O)NC(CCCCN)C(=O)COc1c(F)ccc(F)c1F (stereo not drawn) [Compound 47a],> 10000,> 10000,9000,> 10000,> 10000,> 10000,> 10000,0.06,–
NCCCCC(NC(=O)c1ccccn1)C(=O)COc1c(F)ccc(F)c1F (stereo not drawn) [Compound 50a],> 10000,> 10000,1000,> 10000,> 10000,> 10000,> 10000,0.09,–
NCCCCC(NC(=O)c1ccc(F)nc1)C(=O)COc1ccon1 (stereo not drawn) [Compound 55a],> 10000,> 10000,1000,6380,> 10000,–,> 10000,0.12,–
"COC(C)(C)C(=O)N[C@@H](CCCCN)C(=O)COC(C(F)(F)F)C(F)(F)F [Compound 69, (S)—N-(7-amino-1-((1,1,1,3,3,3-hexafluoropropan-2-yl)oxy)-2-oxoheptan-3-yl)-2-methoxy-2-methylpropanamide]",–,–,–,–,–,–,–,–,selectivity for Kgp over endogenous cathepsins [10]: far more selective; concentrations in the brain and cerebrospinal fluid (CSF) [11]: increased concentrations in the brain and cerebrospinal fluid (CSF); oral availability [11]: improved oral availability; plasma concentrations [11]: increased plasma concentrations
COC(C)(C)C(=O)NC(CCCCN)C(=O)COC(C(F)(F)F)C(F)(F)F (stereo not drawn) [Compound 69a],> 10000,> 10000,> 10000,> 10000,> 10000,> 10000,–,0.21,IC50 [8]: > 10000 nM
C[N+]1=C(/C=C/C=C/C=C2\N(CCCCCC(=O)NCc3cn(-c4cccc(C(=O)N[C@@H](CCCCN)C(=O)COc5c(F)cccc5F)c4)nn3)c3ccc(S(=O)(=O)O)cc3C2(C)C)C(C)(C)c2cc(S(=O)(=O)O)ccc21 [Compound 70],–,–,–,–,–,–,–,–,blocking of probe 15a binding to Kgp by preincubation [12]: blocked the binding of the probe 15a to Kgp
C[N+]1=C(/C=C/C=C/C=C2\N(CCCCCC(=O)NCc3cn(-c4cccc(C(=O)N[C@@H](CCCCN)C(=O)COc5c(F)cc(CNC(=O)C6CCN(S(=O)(=O)c7ccccc7-c7c8cc/c(=[N+]9\CCc%10cc(S(=O)(=O)O)ccc%109)cc-8oc8cc(N9CCc%10cc(S(=O)(=O)O)ccc%109)ccc78)CC6)cc5F)c4)nn3)c3ccc(S(=O)(=O)O)cc3C2(C)C)C(C)(C)c2cc(S(=O)(=O)O)ccc21 [Compound 71],–,–,–,–,–,–,–,–,specificity of detection ([13]; W83 vs Kgp knockout strain): specific for Kgp; apparent limit of detection of Kgp ([13]; probe 1 μM): 500 CFU
CN(NC(=O)CC[C@H](NC(=O)OCc1ccccc1)C(=O)N[C@@H](CCCCN)C(=O)C(=O)NCc1ccccc1)c1ccccc1 [Kyt-36],–,–,–,–,–,–,–,–,half-life [14]: increases the half-life
